We go through one compound from PMC8419995, “In vitro and in vivo efficacy of thiacloprid against Echinococcus multilocularis” (Parasites & Vectors, 2021).

Molecules are shown by their SMILES. Where two headings read alike, the source gives them in different places.

In this assay the test system is Human foreskin fibroblasts (HFF). Description: alamarBlue cytotoxicity assay, HFF. In kind it is cell-based. Conditions: Fibroblast, 120 h, 5 days. The method, then:
An alamarBlue assay was used to assess the toxicity of thiacloprid to confluent and pre-confluent mammalian cells in vitro [29]. Human foreskin fibroblasts (HFF, Procell) and rat hepatoma cells (RH, Procell) were seeded into 96-well cell culture plates in DMEM supplemented with 10% FBS and 1% penicillin–streptomycin at 37 °C and 5% CO2. For detecting the growth inhibitory effects of confluent cells, HFF and RH cells were seeded at 10,000 cells per well and 50,000 cells per well, respectively. After overnight culture, thiacloprid or PZQ was added and diluted in serial concentrations (0, 0.6, 1.2, 2.5, 5, 10, 20, 40, 80 and 160 μM). For detecting growth inhibitory effects on proliferating cells, cells were seeded at 1000 (HFF) and 5000 (RH) cells per well. Thiacloprid was added after 5 h of cell attachment. To measure the viability of the cells after treatment for 5 days, the alamarBlue assay was employed and viability calculated as described previously.

As a reminder, the IC50 is the point on the concentration scale where inhibition reaches its midpoint. On to `N#C/N=C1\SCCN1Cc1ccc(Cl)nc1` [thiacloprid], for which the IC50 is, setting by setting: (confluent cells, read-out: IC50 on confluent HFF) 68.7 ± 9.71 µM; (pre-confluent cells, read-out: IC50 on pre-confluent HFF) 64.8 ± 5.79 µM.
